Source: patent US8809333B2, “Imidazole, pyrazole, and triazole derivatives useful as antibacterial agents” (Pfizer Inc., priority 2011, dated 2014)
Converted amounts (≈) assume the structure as drawn. Where two headings read alike, the source gives them in different places.

Tests used:
[1] = tested on: Acinetobacter baumannii/haemolyticus: Multidrug-resistant clinical isolate (AB-3167); test: MIC determination (CLSI), AB-3167; assay type: cell-based; details: read-out: AB-3167 (MIC)
Protocol: (§1) The in vitro antibacterial activity of compounds described in the Examples was evaluated by minimum inhibitory concentration (MIC) testing according to Clinical and Laboratory Standards Institute (CLSI) Guidelines. See: Clinical and Laboratory Standards Institute. Methods for Dilution Antimicrobial Susceptibility Tests for Bacteria that Grow Aerobically; Approved Standard-Eighth Edition. CLSI document M7-A8 [ISBN 1-56238-689-1]. Clinical and Laboratory Standards Institute, 940 West Valley Road, Suite 1400, Wayne, Pa. 19087-1898 USA, 2006; also Clinical and Laboratory Standards Institute. Performance Standards for Antimicrobial Susceptibility Testing; Twentieth Informational Supplement. CLSI document M100-S20 [ISBN1-56238-716-2]. Clinical and Laboratory Standards Institute.
(§2) The MIC determination is a standard laboratory method for evaluating the antibacterial activity of a compound. The MIC represents the lowest drug concentration that inhibits visible growth of bacteria following overnight incubation. […] Typically, the drug concentration range is broken down into 2-fold increments (e.g. 0.06 μg/mL, 0.12 μg/mL. 0.25 μg/mL, 0.50 μg/mL, 1.0 μg/mL, etc.) and the various drug concentrations are all individually incubated overnight with approximately the same number of bacteria. The MIC is then determined by visually inspecting the drug effect at each concentration, and identifying the lowest drug concentration that has inhibited bacterial growth as compared to the drug free control. Typically, bacteria continue to grow at drug concentrations lower than the MIC and don't grow at concentrations at and above the MIC.
(§3) The MIC values described in Tables 2 and 3 below were derived from assays wherein each test compound was evaluated in duplicate. In cases where the duplicate values varied by 0-2-fold, the lower of the two values was reported below. Generally speaking, if the duplicate values varied by more than 2-fold, the assay was considered non-valid and was repeated until the variation between duplicate runs was ≦2-fold. In line with the CLSI guidelines referred to above, both control organisms and reference compounds were utilized in each MIC assay to provide proper quality control. MIC values generated with these control organisms and reference compounds were required to fall within a defined range for the assay to be considered valid and be included herein. Those skilled in the art will recognize that MIC values can and do vary from experiment to experiment. Generally speaking, it should be recognized that MIC values often vary +/−2-fold from experiment to experiment. While a single MIC is reported for each compound and each microorganism, the reader should not conclude that each compound was only tested once. Several of the compounds were subjected to multiple tests. The data reported in Tables 2 and 3 is reflective of the compounds relative activity and different MICs may have been generated on these occasions in line with the guidelines described above.
(§4) The following bacterial strains were used in these MIC determinations:
(1) Acinetobacter baumannii/haemolyticus: Multidrug-resistant clinical isolate labeled as AB-3167 in Table 5;

[2] = tested on: Pseudomonas aeruginosa UI-18: Wild-type (PA-7); test: MIC determination (CLSI), PA-7; assay type: cell-based; details: read-out: PA-7 (MIC)
Protocol: as §1, §2, §3, §4
(4) Pseudomonas aeruginosa UI-18: Wild-type, labeled as PA-7 in Table 5;

[3] = tested on: Klebsiella pneumoniae: Ciprofloxacin-resistant isolate, expresses ESBL, clinical isolate (KP-3700); test: MIC determination (CLSI), KP-3700; assay type: cell-based; details: overnight incubation, lower of duplicate values
Protocol: as §1, §2, §3, §4
(3) Klebsiella pneumoniae: Ciprofloxacin-resistant isolate, expresses extended-spectrum beta-lactamases (ESBL), clinical isolate, labeled as KP-3700 in Table 5.

[4] = target: T1, Pseudomonas aeruginosa LpxC enzyme (Pseudomonas aeruginosa, UniProt P47205); test: IC50 assay, LpxC enzyme from P. aeruginosa (BioTrove RapidFire mass spectrometry); assay type: biochemical
T1 construct: made in house; host or cells: E. coli
T1 sequence (P47205 1-303): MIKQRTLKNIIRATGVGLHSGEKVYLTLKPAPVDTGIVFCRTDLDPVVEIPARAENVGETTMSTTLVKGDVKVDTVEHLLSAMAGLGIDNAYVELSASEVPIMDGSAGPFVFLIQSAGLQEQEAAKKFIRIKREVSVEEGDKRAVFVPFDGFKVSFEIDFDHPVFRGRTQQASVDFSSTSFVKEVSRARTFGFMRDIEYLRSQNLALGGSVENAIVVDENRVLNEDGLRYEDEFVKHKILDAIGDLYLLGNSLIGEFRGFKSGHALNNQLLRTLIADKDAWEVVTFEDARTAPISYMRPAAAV
Protocol: In order to assess the compounds biological activity, selected in-vitro assays were conducted on selected compounds of Formula I. One of the assays measured the compounds ability to disrupt the synthesis of lipopolysaccharide, LPS, which is a component of the outer membrane of Gram-negative bacteria. Disruption of this synthesis is lethal to the bacteria. The assay determined the compound's ability to inhibit LpxC, which is the first enzyme in the biosynthetic pathway for LPS (measured as IC50). Additionally, MICs (minimal inhibitory concentrations) were determined for several bacteria. The specific protocols are described below:
A) IC50 Assay, LpxC Enzyme from P. Aeruginosa Labeled as PA LpxC Enzyme IC50):
At the end of 1 hour, 5 ul of 1 N HCl was added to stop the enzyme reaction, the plates were centrifuged, and then processed with the BioTrove Rapidfire HTMS Mass Spectrometry System. A no-enzyme control was used in calculating the IC50 values from the percent conversion values.

[5] = tested on: Escherichia coli EC-1: VOGEL, mouse virulent; test: MIC determination (CLSI), EC-1; assay type: cell-based; details: Escherichia coli, read-out: EC-1 (MIC)
Protocol: as §1, §2, §3, §4
(2) Escherichia coli EC-1: VOGEL, mouse virulent labeled as EC-1 in Table 5;

[6] = Acinetobacter baumannii/haemolyticus multidrug-resistant clinical isolate, overnight incubation, lower of duplicate values
[7] = Pseudomonas aeruginosa UI-18 wild-type, overnight incubation, lower of duplicate values
[8] = P. aeruginosa LpxC enzyme 0.1 nM, 25° C., 1 hour, pH 8.0, read-out: PA: IC50

SMILES: COc1ccc(-c2cn(CC[C@](C)(C(=O)NO)S(C)(=O)=O)nn2)c(Cl)c1 [Example 16, (2R)-4-[4-(2-chloro-4-methoxyphenyl)-1H-1,2,3-triazol-1-yl]-N-hydroxy-2-methyl-2-(methylsulfonyl)butanamide]
- MIC [1, 6]: > 64 µg/mL
- MIC [2, 7]: 8 µg/mL (≈ 19.9 µM)
- KP-3700 (MIC) [3]: 32 µg/mL
- IC50 [4]: 4.71 nM
- MIC [5]: 8 µg/mL (≈ 19.9 µM)

SMILES: C[C@@](CCn1cc(-c2cccc(F)c2F)nn1)(C(=O)NO)S(C)(=O)=O [Example 17, (2R)-4-[4-(2,3-difluorophenyl)-1H-1,2,3-triazol-1-yl]-N-hydroxy-2-methyl-2-(methylsulfonyl)butanamide]
- MIC [1, 6]: > 64 µg/mL
- MIC [2, 7]: 4 µg/mL (≈ 10.7 µM)
- KP-3700 (MIC) [3]: 64 µg/mL
- IC50 [4]: 8.08 nM
- MIC [5]: 32 µg/mL (≈ 85.5 µM)

SMILES: C[C@@](CCn1cc(-c2cccc(Cl)c2Cl)nn1)(C(=O)NO)S(C)(=O)=O [Example 19, (2R)-4-[4-(2,3-dichlorophenyl)-1H-1,2,3-triazol-1-yl]-N-hydroxy-2-methyl-2-(methylsulfonyl)butanamide]
- MIC ([1]; Acinetobacter baumannii): > 64 µg/mL
- MIC ([2]; Pseudomonas aeruginosa): 4 µg/mL (≈ 9.82 µM)
- KP-3700 (MIC) [3]: 16 µg/mL
- IC50 [4]: 1.95 nM
- MIC [5]: 8 µg/mL (≈ 19.6 µM)

SMILES: C[C@@](CCn1cc(-c2ccc(F)c(F)c2)nn1)(C(=O)NO)S(C)(=O)=O [Example 20, (2R)-4-[4-(3,4-difluorophenyl)-1H-1,2,3-triazol-1-yl]-N-hydroxy-2-methyl-2-(methylsulfonyl)butanamide]
- MIC [1, 6]: > 64 µg/mL
- MIC [2, 7]: 4 µg/mL (≈ 10.7 µM)
- KP-3700 (MIC) [3]: >64.0 µg/mL
- IC50 [4]: 1.87 nM
- MIC [5]: 32 µg/mL (≈ 85.5 µM)

SMILES: C[C@@](CCn1cc(-c2ccc(Cl)c(Cl)c2)nn1)(C(=O)NO)S(C)(=O)=O [Example 21, (2R)-4-[4-(3,4-dichlorophenyl)-1H-1,2,3-triazol-1-yl]-N-hydroxy-2-methyl-2-(methylsulfonyl)butanamide]
- MIC ([1]; Acinetobacter baumannii): > 64 µg/mL
- MIC ([2]; Pseudomonas aeruginosa): 2 µg/mL (≈ 4.91 µM)
- KP-3700 (MIC) [3]: 32 µg/mL
- IC50 [4]: 1.67 nM
- MIC [5]: 16 µg/mL (≈ 39.3 µM)

SMILES: C[C@@](CCn1cc(-c2ccc(Cl)c(F)c2)nn1)(C(=O)NO)S(C)(=O)=O [Example 23, (2R)-4-[4-(4-chloro-3-fluorophenyl)-1H-1,2,3-triazol-1-yl]-N-hydroxy-2-methyl-2-(methylsulfonyl)butanamide]
- MIC [1, 6]: > 64 µg/mL
- MIC [2, 7]: 2 µg/mL (≈ 5.12 µM)
- KP-3700 (MIC) [3]: 64 µg/mL
- IC50 [4]: 0.912 nM
- MIC [5]: 8 µg/mL (≈ 20.5 µM)

SMILES: C[C@@](CCn1cc(-c2ccc(Cl)cc2F)nn1)(C(=O)NO)S(C)(=O)=O [Example 24, (2R)-4-[4-(4-chloro-2-fluorophenyl)-1H-1,2,3-triazol-1-yl]-N-hydroxy-2-methyl-2-(methylsulfonyl)butanamide]
- MIC [1, 6]: > 64 µg/mL
- MIC [2, 7]: 1 µg/mL (≈ 2.56 µM)
- KP-3700 (MIC) [3]: 4 µg/mL
- IC50 [4]: 0.657 nM
- MIC [5]: 2 µg/mL (≈ 5.12 µM)

SMILES: CC(CCn1cc(-c2ccc(Cl)cc2)nn1)(C(=O)NO)S(C)(=O)=O (centres unmarked) [Example 26, 4-[4-(4-chlorophenyl)-1H-1,2,3-triazol-1-yl]-N-hydroxy-2-methyl-2-(methylsulfonyl)butanamide]
- MIC [1, 6]: > 64 µg/mL
- MIC [2, 7]: 4 µg/mL (≈ 10.7 µM)
- KP-3700 (MIC) [3]: 32 µg/mL
- IC50 [4, 8]: 2.87 nM
- MIC [5]: 32 µg/mL (≈ 85.8 µM)

SMILES: CC(CCn1cc(CSc2cccc(Cl)c2)nn1)(C(=O)NO)S(C)(=O)=O (centres unmarked) [Example 27, 4-(4-{[(3-chlorophenyl)sulfanyl]methyl}-1H-1,2,3-triazol-1-yl)-N-hydroxy-2-methyl-2-(methylsulfonyl)butanamide]
- MIC [1, 6]: > 64 µg/mL
- MIC [2, 7]: 64 µg/mL (≈ 153 µM)
- KP-3700 (MIC) [3]: >64.0 µg/mL
- IC50 [4, 8]: 12.2 nM
- MIC [5]: > 64 µg/mL

SMILES: CC(C)(C)c1ccccc1SCc1cn(CCC(C)(C(=O)NO)S(C)(=O)=O)nn1 (centres unmarked) [Example 28, 4-(4-{[(2-t-butylphenyl)sulfanyl]methyl}-1H-1,2,3-triazol-1-yl)-N-hydroxy-2-methyl-2-(methylsulfonyl)butanamide]
- MIC [1, 6]: > 64 µg/mL
- MIC [2, 7]: > 64 µg/mL
- KP-3700 (MIC) [3]: >64.0 µg/mL
- IC50 [4, 8]: 174 nM
- MIC [5]: > 64 µg/mL

SMILES: CC(CCn1cc(CSc2ccc(Cl)cc2)nn1)(C(=O)NO)S(C)(=O)=O (centres unmarked) [Example 29, 4-(4-{[(4-chlorophenyl)sulfanyl]methyl}-1H-1,2,3-triazol-1-yl)-N-hydroxy-2-methyl-2-(methylsulfonyl)butanamide]
- MIC [1, 6]: > 64 µg/mL
- MIC [2, 7]: 32 µg/mL (≈ 76.4 µM)
- KP-3700 (MIC) [3]: >64.0 µg/mL
- IC50 [4, 8]: 8.82 nM
- MIC [5]: > 64 µg/mL

SMILES: CC(CCn1cc(COc2ccc3ccccc3c2)nn1)(C(=O)NO)S(C)(=O)=O (centres unmarked) [Example 30, N-hydroxy-2-methyl-2-(methylsulfonyl)-4-{4-[(naphthalen-2-yloxy)methyl]-1H-1,2,3-triazol-1-yl}butanamide]
- MIC [1, 6]: > 64 µg/mL
- MIC [2, 7]: 32 µg/mL (≈ 76.5 µM)
- KP-3700 (MIC) [3]: >64.0 µg/mL
- IC50 [4, 8]: 3.76 nM
- MIC [5]: > 64 µg/mL

SMILES: CC(C)c1ccccc1SCc1cn(CCC(C)(C(=O)NO)S(C)(=O)=O)nn1 (centres unmarked) [Example 31, N-hydroxy-2-methyl-2-(methylsulfonyl)-4-[4-({[2-(propan-2-yl)phenyl]sulfanyl}methyl)-1H-1,2,3-triazol-1-yl]butanamide]
- MIC [1, 6]: > 64 µg/mL
- MIC [2, 7]: > 64 µg/mL
- KP-3700 (MIC) [3]: >64.0 µg/mL
- IC50 [4, 8]: 303 nM
- MIC [5]: > 64 µg/mL

SMILES: CCc1ccccc1SCc1cn(CCC(C)(C(=O)NO)S(C)(=O)=O)nn1 (centres unmarked) [Example 32, 4-(4-{[(2-ethylphenyl)sulfanyl]methyl}-1H-1,2,3-triazol-1-yl)-N-hydroxy-2-methyl-2-(methylsulfonyl)butanamide]
- MIC [1, 6]: > 64 µg/mL
- MIC [2, 7]: > 64 µg/mL
- KP-3700 (MIC) [3]: >64.0 µg/mL
- IC50 [4, 8]: 50.9 nM
- MIC [5]: > 64 µg/mL

SMILES: CC(CCn1cc(COc2ccc(C(F)(F)F)cc2)nn1)(C(=O)NO)S(C)(=O)=O (centres unmarked) [Example 33, N-hydroxy-2-methyl-2-(methylsulfonyl)-4-(4-{[4-(trifluoromethyl)phenoxy]methyl}-1H-1,2,3-triazol-1-yl)butanamide]
- MIC [1, 6]: > 64 µg/mL
- MIC [2, 7]: 32 µg/mL (≈ 73.3 µM)
- KP-3700 (MIC) [3]: >64.0 µg/mL
- IC50 [4, 8]: 9.6 nM
- MIC [5]: 64 µg/mL (≈ 147 µM)

SMILES: CC(CCn1cc(COc2cccc3ccccc23)nn1)(C(=O)NO)S(C)(=O)=O (centres unmarked) [Example 34, N-hydroxy-2-methyl-2-(methylsulfonyl)-4-{4-[(naphthalen-1-yloxy)methyl]-1H-1,2,3-triazol-1-yl}butanamide]
- MIC [1, 6]: > 64 µg/mL
- MIC [2, 7]: > 64 µg/mL
- KP-3700 (MIC) [3]: >64.0 µg/mL
- IC50 [4, 8]: 26.3 nM
- MIC [5]: > 64 µg/mL
